Experimental data published in patent US20030232040A1, “Biocidal methods and compositions” (SureCide Technologies, LLC, priority 2000, published 2003).
“Also recorded” adds a separate entry of the source.

Tested on: Escherichia coli (ATCC strain #25404)
Assay: High-throughput 96-well liquid outgrowth system for the measurement of bacterial cell killing
Assay type: cell-based
Settings: for antimicrobial effectiveness: 1 mM FeCl2 10 min; for log kill / antimicrobial effect of the stress inducer after iron pre-incubation: 10 min 1 mM FeCl2 in iso-osmotic saline (130 mM NaCl, pH 5.0), then 10 min a range of concentrations of the stress inducer; for kill by the stress inducer alone: no FeCl2 pre-treatment, 10 min a range of concentrations of the stress inducer, iso-osmotic saline
From the text: Classical methods for determining antimicrobial effects involve exposure of cells to disinfectant or antiseptic agents contained in tubes or vials, removal of the agents by centrifugation, washing of the cells to remove disinfectant residues, plating of the cells at a number of dilutions onto culture plates, and enumeration of the resulting colonies. Such methods are inadequate for the purposes of the present invention for two principle reasons, namely, treatment of cells in tubes is too lengthy for the determination of rapid effects (e.g., on the order of 1-5 minutes), and treatment and plating are too laborious for the accurate determination of many different interactions in parallel. […] In these experiments, the assays were prepared as follows, and quadruplicate wells were treated in parallel. A high-throughput 96-well liquid outgrowth system was devised for the measurement of bacterial cell killing. Known numbers of living cells were treated, and unknown numbers of surviving cells were quantified by measuring the rate of liquid outgrowth of the culture relative to a standard curve, as determined by optical density. Cells of Escherichia coli (ATCC strain #25404) were grown to mid-log cell density (absorbance of about 0.1 at 600 nm) in 100 mL of Luria Broth (LB) at 37° C. in Erlenmeyer flasks, and then chilled at 0° C. on ice prior to use. “Treatment” plates were prepared as follows. Chilled cells were aliquoted (approximately 50 μL) into wells of a 96-well filtration plate (Multiscreen® (Millipore Corporation, Bedford, Mass.), having a 0.22 μm hydrophilic Durapore® membrane at the bottom of the wells). The LB medium was removed by vacuum filtration, and the remaining cells were washed with 150 μL of an iso-osmotic solution, either sterile saline solution (SSS, 130 mM NaCl, pH 5.0) or sterile HEPES-buffered saline (HBS, 0.595% HEPES, 0.82% NaCl, pH 7.05). The cells on the treatment plate were then exposed to various free iron (for example, FeCl2) and optional stress inducer treatments as described in the examples delineated below. The FeCl2 solutions were always prepared fresh on the day of use from the anhydrous salt. The cells in a set number of wells were not treated; these untreated cells were serially diluted and used to construct a standard curve. “Reading” plates were made from the treatment plate by adding approximately 130 μL of sterile LB medium to each well of three sterile polycarbonate microtiter plates (Corning). […] of the resuspended cells from all wells of the treatment plate were then transferred to a corresponding well on the reading plates, which were then sealed (for example, using polypropylene sealing mats) and incubated at 37° C. with vigorous shaking. Absorbance readings of turbidity (measured at λ=600 nm) were recorded at approximately 45minute intervals over a time course ranging from about two to about seven hours. Cell densities of the wells containing the treated cells were calculated by comparison to the standard curve. Absorbance readings were performed at 600 nm using a standard microtiter plate absorbance reader (Multiskan® microplate reader by Labsystems, Helsinki, FI). The measurements collected for the treated cells were disregarded unless they fell within a region of linear growth in liquid culture, which was individually determined for each time point reading. Generally, acceptable measurements ranged from about 0.020 to about 0.200 OD units. […] Techniques for calculating slopes and determining concentrations from standard curves are known to one skilled in the art, FeCl2 solutions were prepared from the anhydrous salt, and peroxide (H2O2) dilutions are prepared fresh from a 30% w/w stock solution. Cells were plated as described above, then treated with FeCl2 at concentrations ranging from about 1 μM to about 1.024 mM (in HBS). Cells were exposed to the FeCl2 solution for approximately 10 minutes at room temperature (i.e., iron “pre-treatment”).

Row | Molecule | log kill / antimicrobial effect of the stress inducer after iron pre-incubation | kill by the stress inducer alone | also measured
1 | [Cl][Fe][Cl] [FeCl2] | – | – | antimicrobial effectiveness (then NaCl near the iso-osmotic point (130 mM) (FIG. 4)): minimally effective; antimicrobial effectiveness (then hypo-osmotic (0 mM NaCl) or hyper-osmotic (600 mM) conditions (FIG. 4)): maximally effective; cell killing (10 min 1 mM FeCl2 in iso-osmotic saline, then 10 min in a range of osmolarities of sodium chloride (FIG. 4)): resulted in killing at all osmolarities; FeCl2 pre-treatment concentration that increases the sensitivity of cells to subsequent H2O2 (10 min FeCl2 in HBS, then 10 min H2O2 about 73 μM to about 1 mM (FIG. 2B)): ≥ 16 µM; cell killing (decrease in cell viability) (FeCl2 alone, about 1 μM to about 1.024 mM in iso-osmotic HBS, 10 min room temperature, no hydrogen peroxide (FIG. 2A)): did not result in appreciable cell killing at any concentration; also recorded: relatively small antimicrobial effect; reduction of microbial population (FeCl2 pre-treatment 10 min in HBS, then H2O2 10 min at concentrations as low as 73 μM (FIG. 2A)): reduced the microbial populations significantly
2 | O=P([O-])([O-])[O-].[Na+].[Na+].[Na+] [TSP, trisodium phosphate] | enhanced by pre-incubation of the cells with free iron | – | –
3 | O=C(O)CC(O)(CC(=O)O)C(=O)O [citric acid] | potentiated by pre-incubation with iron | – | –
4 | OCl [hypochlorite] | highly effective | none of the concentrations of bleach used resulted in any kill alone | –
5 | lysozyme | highly effective | none of the concentrations of lysozyme used resulted in any kill alone | –
